Assay results published in PMC7278359, “Small molecule AX-024 reduces T cell proliferation independently of CD3ϵ/Nck1 interaction, which is governed by a domain swap in the Nck1-SH3.1 domain” (The Journal of Biological Chemistry, 2020).
Entries after “also recorded” stand apart in the source; their conditions may differ.

Key:
Nck1-SH3.1 [1] = target: T1, Nck1-SH3.1 (Homo sapiens, UniProt P16333); assay: SPR binding to immobilized Nck1-SH3.1; conditions: AX-024 up to 100 μM; 1260 RU; 20 °C, pH 7.8
T1 construct: His10-Avi-TEV-Nck1-SH3.1 (residues 1–61, MM 11,847 Da) was biotinylated and immobilized via streptavidin; made in house; host or cells: Escherichia coli BL21 (DE3)
Procedure: SPR experiments were conducted on a T200 Biacore instrument (GE Healthcare, Uppsala, Sweden) at 20 °C in 10 mM HEPES/NaOH, pH 7.8, 150 mM NaCl, 1 mM TCEP. […] Streptavidin is immobilized on the CAP sensor by way of double-strand DNA formation. A ssDNA is covalently coupled to the sensor surface, and a complementary DNA strand, covalently linked to streptavidin, is hybridized. To regenerate the surface, the DNA duplex is dissociated by washing with high-ionic strength solution. […] The reference channel for binding studies contained the same streptavidin-coated surface blocked with biotin.
Five replicates were performed for each CD3ϵ concentration (Table S1), whereas for the qualitative assessment of the APVA variant, only a single titration was performed.
SPR equilibrium signals were corrected for the signal in the reference channel and buffer contributions. The resulting SPR amplitudes were plotted as a function of peptide concentration, and a simple binding equation describing a Langmuir adsorption isotherm was fit to the data (GraphPad Prism) to extract the equilibrium dissociation constant Kd. (Eq. 1) RU=RUmax·[peptide]/[peptide]+Kd

monomeric Nck1-SH3.1 = assay: Ligand-observed NMR with monomeric Nck1-SH3.1; format: binding, human; conditions: 50 μM ligand, 10 μM monomeric Nck1-SH3.1 (residues 1–61), pH 6.5, 150 mM NaCl, 27 °C
Procedure: NMR spectra were recorded on a Bruker 600-MHz Avance NEO spectrometer equipped with a cryogenic QCI probe head at 27 °C in 25 mM […], 150 mM NaCl. The Topspin 4.0 software (Bruker, Fällanden) was used for spectrometer operation and data processing. For ^1H ligand-observed measurements, a relaxation filtered pulse sequence utilizing a spinlock of 50 ms was applied. 1D spectra were acquired with 128 scans, a sweep width of 26 ppm, and an acquisition time of 2 s. 2D ^1H-^15N HSQC spectra with natural ^15N isotope abundance were recorded over 72 h with a spectral width of 16 ppm and 35 ppm in the proton and nitrogen dimensions, respectively, with 256 increments (complex) and 1000 scans per increment. A relaxation delay of 1 s was used between scans. For the DOSY measurements (reviewed in Ref. [51]), the Bruker pulse sequence ledbpgp2s with a diffusion delay of 50 ms and a gradient length of 600 μs was used. The gradient strength was varied from 5 to 95% to record 16 increments of 512 scans with a sweep width of 18 ppm and a relaxation delay of 1 s.
Samples for ligand-observed measurements were prepared in 25 mM sodium phosphate buffer, pH 6.5, 150 mM NaCl. One sample contained 50 μM AX-024, and the other contained 50 μM CD3ϵ peptide.

5-HT2B = assay: Selectivity panel (Eurofins, CEREP); format: binding; conditions: 10 μM AX-024, single point; human receptor; radioactive antagonist ligand
Procedure: (§1) AX-024 was submitted to a selectivity panel comprising 50 recurring off-targets, including G protein–coupled receptors, channels, transporters, and metabolic enzymes (Eurofins, CEREP).
(§2) Supplemental Table 1: SPR peptide titrations
(§3) Single point measurements at 10 μM for 50 targets in a selectivity panel.
(§4) human receptors, except for the Ca2+ channel, which is from rat. A radioactive antagonist ligand was used
(§5) for the detection. The tests were conducted by Euro fins (https://www.eurofinsdiscoveryservices.com ).

[2] = test system: Ca2+ channel (CaV1.2) (L, diltiazem site); assay: Selectivity panel (Eurofins, CEREP); format: binding; conditions: probe radioactive antagonist ligand, 10 μM AX-024, single point, rat Ca2+ channel
Procedure: as §1, §2, §3, §4, §5

Dopamine D1 = assay: Selectivity panel (Eurofins, CEREP); format: binding; conditions: 10 μM AX-024, single point; human receptor; radioactive antagonist ligand
Procedure: as §1, §2, §3, §4, §5

Histamine H3 = assay: Selectivity panel (Eurofins, CEREP); format: binding; conditions: 10 μM AX-024, single point; human receptor; radioactive antagonist ligand
Procedure: as §1, §2, §3, §4, §5

Muscarinic M1 = assay: Selectivity panel (Eurofins, CEREP); format: binding; conditions: 10 μM AX-024, single point; human receptor; radioactive antagonist ligand
Procedure: as §1, §2, §3, §4, §5

Muscarinic M2 = assay: Selectivity panel (Eurofins, CEREP); format: binding; conditions: 10 μM AX-024, single point; human receptor; radioactive antagonist ligand
Procedure: as §1, §2, §3, §4, §5

α 1A adrenoreceptor = assay: Selectivity panel (Eurofins, CEREP); format: binding; conditions: 10 μM AX-024, single point; human receptor; radioactive antagonist ligand
Procedure: as §1, §2, §3, §4, §5

Nck1-SH3.1 [3] = conditions: in vitro; ref [10]; cited from earlier work
From the text: (§6) The objective of the present study was to initiate development of an inhibitor of the Nck/TCR interaction, specifically by blocking binding of the first SH3 domain in Nck (Nck1-SH3.1) to the PRS in the CD3ϵ subunit of the TCR.

T cell proliferation = conditions: response to weak antigens; ref [10]; cited from earlier work
From the text: as §6

[4] = test system: Zap70 phosphorylation in anti-CD3–stimulated T cells; conditions: ref [10]; cited from earlier work
Procedure: It was shown previously that Nck contributes to TCR signaling after weak stimulation of T cells. […] To obtain a strong dependence of TCR signaling on Nck, different stimulation conditions with low concentrations of anti-CD3 in the absence of co-stimulatory signals were assessed in the presence of AX-024 (Fig. 4). […] At the outset of this study, further development of AX-024, published as a PPI of the Nck1/CD3ϵ interaction ([10]), was anticipated. Unfortunately, we could not replicate all biological effects attributed to this compound. […] Whereas there is an inhibitory effect of AX-024 on T cell proli ...

## COc1ccc2c(c1)C(c1ccc(F)cc1)=C(CN1CCCC1)CO2.Cl [AX-024, 1-((4-(4-fluorophenyl)-6-methoxy-2H-chromen-3-yl)methyl)pyrrolidine hydrochloride]
Nck1-SH3.1 [1]
  direct binding to immobilized Nck1-SH3.1 by SPR: does not bind to Nck1-SH3.1; also recorded: no direct binding of AX-024 to immobilized Nck1-SH3.1 was detectable
Monomeric Nck1-SH3.1
  ligand-observed NMR, spectral change / line broadening: no binding of AX-024 was detected by NMR; also recorded: do not show any spectral changes
5-HT2B
  % inhibition: 80.1%
[2]
  inhibition at 10 μM: 66.3%
Dopamine D1
  % inhibition: 85.3%
Histamine H3
  % inhibition: 95.1%
Muscarinic M1
  % inhibition: 95.0%
Muscarinic M2
  % inhibition: 81.3%
α 1A adrenoreceptor
  % inhibition: 79.3%
Nck1-SH3.1 [3]
  physical interaction with Nck1-SH3.1 (SPR and NMR): appeared to support physical interaction of AX-024 with the Nck1-SH3.1 domain
T cell proliferation
  inhibition of T cell proliferation: inhibit T cell proliferation specifically in response to weak antigens
[4]
  reduction of Zap70 phosphorylation: reduces Zap70 phosphorylation to the same level as in unstimulated T cells; also recorded: reduces ZAP70 phosphorylation in anti-CD3–stimulated T cells to levels comparable with unstimulated T cells
